The source of these data is patent publication EP2216326B1, “Biologically acceptable choline compounds and their use as tensides” (Universität Regensburg, priority 2009, dated 2010).

SMILES strings stand for the structures. Read-outs that look alike come from different tables or passages of the source. Some results are limits rather than exact numbers.

One series concerns HeLa-Zellen. The experiment in a line: MTT assay (Mosmann) cytotoxicity on HeLa cells. It counts as cell-based, human. The settings on record: 72 h at 37°C, at least 5 independent measurements, high values mean low toxicity. An excerpt: (§1) Die Zytotoxizität und Hautverträglichkeit von ChDS im Vergleich zu anderen gängigen anionischen Tensiden wurden mittels in-vitro Tests an HeLa-Zellen (humane Gebärmutterhalskrebszellen) und SK-MHL 28 Zellen (humane Melanom-Zellen) getestet. Dieses etablierte in vitro Verfahren ist in N. Vlachy, D. Touraud, J. Heilmann, W. Kunz, Colloids and Surfaces B: Biointerfaces, 2009, 70, 278 - 280 beschrieben und bietet eine gute Alternative zu den in vivo Draize-Augenirritationstests.
(§2) Die Zellen wurden von der American Type Culture Collection (ATCC) zur Verfügung gestellt. Die Kultivierung der HeLa-Zellen erfolgte in Earle's minimum essential medium (MEM) mit 0.85 g/l Natriumhydrogencarbonat, zusätzlich versetzt mit fötalem Kälberserum (10%), L-Glutamin (2mM), nichtessentiellen Aminosäuren (1%), Amphotericin B ([…]) und Penicillin G/Streptomycin Sulfat (100u/ml). Die SK - MEL 28 - Zellen wurden in einer 1:1 Mischung aus Dulbecco's MEM mit 4.5 g/l Natriumhydrogencarbonat sowie LGlutamin und Pyrovat und HAM'S F-12 Medium mit 1.176 g/l Natriumhydrogencarbonat und stabilem Glutamin, versetzt mit 10% fötalem Kälberserum, kultiviert.
(§3) Die Inhibitionskonzentration an Testsubstanz, welche zu einer Reduktion an lebenden Zellen um 50% im Vergleich zu einer unbehandelten Kontrolle führt (IC 50), wurde via MTT-Assay nach Mosmann festgestellt.
(§4) Hierzu wurden in der ersten Spalte einer 96-Well-Platte je 15 µl an wässriger Testsubstanzlösung mit 135 µl Medium durchmischt. Je 75 µl dieser Mischung wurden abgenommen und in der zweiten Spalte mit 75 µl Medium verdünnt. Diese Prozedur wurde bis zur vollständigen Füllung der Platte von Spalte zu Spalte wiederholt. Anschließend wurden in jedem Well 11250 Zellen in 75 µl Medium angesät. Die so vorbereiteten Platten wurden 72 Stunden bei 37°C im Brutschrank aufbewahrt.
(§5) Danach wurden 15 µl MTT - Lösung zu jedem Well gegeben und für weitere 4 Stunden inkubiert. Im Anschluss wurde die überstehende Lösung abgetrennt und der reduzierte MTT-Bodensatz jeweils mit 150 µl 10%iger Natrumdodecylsulfat-Lösung versetzt. Nachdem die Platten über Nacht unter Lichtausschluss stehen gelassen wurden, wurde die Absorption der Lösungen bei 560 nm mittels einem TECAN Spectra Fluor Plus microplate reader bestimmt. Nach Mittelung an zwei Einzelmessungen konnte aus den sich ergebenden Dosis-Wirkungskurven der entsprechende IC 50 Wert errechnet werden. Angegebene Werte der Inhibitionskonzentration errechnen sich aus mindestens 5 unabhängigen Messungen.

The subject of a further series is SK-MEL 28-Zellen. The experiment in a line: MTT assay (Mosmann) cytotoxicity on SK-MEL 28 cells. In kind it is cell-based, human. The settings on record: 72 h at 37°C, at least 5 independent measurements, high values mean low toxicity.
Text: as §1, §2, §3, §4, §5
(In general: Tetrazolium dyes change colour on reduction, which living cells bring about.)

For series [1] the following is noted: cited from earlier work; for TKr (Krafft-Temperatur): literature values of comparison substances, references (1)-(3); for Löslichkeitstemperatur in Wasser: water, literature or background statement.
Series [2] is described as follows: Krafft temperature (solubility temperature of a 1 wt% aqueous solution) by turbidity measurement, with and without added salt. It counts as physicochemical. An excerpt:
Als Maß für die Löslichkeit und Salzempfindlichkeit wurden die Krafft-Punkte in Abwesenheit von Salzen sowie bei unterschiedlichen Salzkonzentrationen herangezogen.
Allgemein kann die Krafft-Temperatur eines Tensids als die Löslichkeitstemperatur einer 1 Gew. %igen Lösung definiert werden, da die CMC generell weit unterhalb dieser Konzentration liegt (R. G. Laughlin, The Aqueous Phase Behavior of Surfactants, Academic Press, San Diego, 1994, p. 108). Dementsprechend wurde zur Bestimmung der Krafft-Temperatur von ChDS eine 1 gew. - %ige Lösung eingewogen. Zur Untersuchung des Einflusses von Salzen auf den Krafft-Punkt wurden 1 gew% - igen Lösungen von ChDS verschiedene Mengen an Natriumchlorid (Merck, p.a.) bzw. Cholinchlorid (Sigma-Aldrich, min. 98%) zugesetzt und die zugehörige Löslichkeitstemperatur gemessen.
Präzise Löslichkeitstemperaturen wurden aus Trübungsmessungen gemäß des in S. Schrödle, R. Buchner, W. Kunz, Fluid Phase Equilib., 2004, 216, 175-182 beschriebenen Verfahrens erhalten. Hierzu wurden alle untersuchten Proben bis zum Auftreten eines Niederschlags abgekühlt und anschließend mit einer Rate von 5°C pro Stunde wieder aufgeheizt.
Die Salzempfindlichkeit wurde durch Messung der Krafft-Temperatur bei unterschiedlichen Salzkonzentrationen untersucht.

Series [3] can be described thus: Surface tension of aqueous surfactant solutions, ring method (Krüss Tensiometer K100). In kind it is physicochemical. The settings on record: 25°C, aqueous solution, value reached starting from ca. 70 mN/m for water (Figur 3). The procedure:
Die Herabsetzung der Grenzflächenspannung von Wasser durch Zugabe an Tensid ist ein wichtiges Maß für die Effizienz eines Tensids. Die Oberflächenspannung von wässrigen ChDS- und SDS- Lösungen wurde anhand der Ringmethode mit einem Krüss Tensiometer K100 vermessen. Figur 3 zeigt die gemessene Grenzflächenspannung bei einer Temperatur von 25°C in Abhängigkeit von der Konzentration.

Series [4] can be described thus: Solubility in organic solvents. In kind it is physicochemical. The conditions noted are these: Chloroform, Aceton, Acetonitril or Dimethylsulfoxid.
The next series concerns Ratten-Gliom-Zellen. The conditions noted are these: rat glioma cells, cited from earlier work.

For `CCCCCCCCCCCC(=O)O` [ChCl2, Cholinlaurat], the IC50 with HeLa-Zellen came to 305 ± 6 µM; with SK-MEL 28-Zellen, 360 ± 10 µM. Further, in series [1], the “TKr (Krafft-Temperatur)” value was <0°C^(3).

Consider `CCCCCCCCCCCCOS(=O)(=O)O` [ChDS, Cholindodecylsulfat], for which the IC50 in the series on HeLa-Zellen (Homo sapiens, HeLa, 72 h) is 404 ± 4 µM; in the series on SK-MEL 28-Zellen (Homo sapiens, SK-MEL-28, 72 h), 430 ± 20 µM. Moreover, the “TKr (Krafft-Temperatur)” value in series [2] (1 wt% aqueous solution, no salt, turbidity measurement) was 0 °C. In addition, the “Anstieg der Krafft-Temperatur” value in series [2] (NaCl:surfactant ratio of 1:1, 1 wt% solution (Figur 1, Figur 2)) was ~7 °C. Besides, the “in Wasser löslich bis (Temperatur)” value in series [2] (water, found by the applicant) was < 0 °C. Further, the “Grenzflächenspannung von Wasser” value in series [3] is “ca. 37 mN/m”. In addition, in series [4], the “Löslichkeit in organischen Lösungsmitteln” value is recorded as “gut löslich”.

For `C[N+](C)(C)CCO` [Cholin, (2-Hydroxyethyl)trimethylammonium], the “Toxizität geringer im Vergleich zu Tetramethylammonium (TMA), Faktor” value in the series on Ratten-Gliom-Zellen (factor of lower toxicity versus TMA) was 5,5. For the same compound, the “Toxizität geringer im Vergleich zu Tetrabutylammonium, -fach” value in the series with Ratten-Gliom-Zellen (fold lower toxicity versus tetrabutylammonium) is recorded as > 500.

`CCCCCCCCCCCC(=O)O` [KC12, Kaliumlaurat]: the IC50 came out at 234 ± 5 µM with HeLa-Zellen (Homo sapiens, HeLa, 72 h) and 400 ± 10 µM with SK-MEL 28-Zellen (Homo sapiens, SK-MEL-28, 72 h). For the same compound, in series [1], the “TKr (Krafft-Temperatur)” value is 10°C^(3).

For the compound `CCCCCCCCCCCCOS(=O)(=O)O` [KDS, Kaliumdodecylsulfat], the “TKr (Krafft-Temperatur)” value in series [1] is 40°C^(1).

On to `CCCCCCCCCCCC(=O)O` [NaCl2, Natriumlaurat], for which the results for the IC50 in the series with HeLa-Zellen and in the series with SK-MEL 28-Zellen were 230 ± 10 µM and 420 ± 10 µM, respectively. Besides, in series [1], the “TKr (Krafft-Temperatur)” value is 25°C^(2).

For `CCCCCCCCCCCCOS(=O)(=O)O` [SDS, Natriumdodecylsulfat], the figures for the half-maximal inhibitory concentration (IC50) in the series with HeLa-Zellen and with SK-MEL 28-Zellen were 270 ± 10 µM and 320 ± 30 µM, respectively. Further, in series [3], the “Grenzflächenspannung von Wasser” value is recorded as “ca. 36 mN/m”. The “Löslichkeit in organischen Lösungsmitteln” value in series [4] is on record as “nur geringe Löslichkeit”. Moreover, the “TKr (Krafft-Temperatur)” value in series [1] was 16°C^(1). For the same compound, the “Löslichkeitstemperatur in Wasser” value in series [1] is 12-25 °C.

As to `CCCCCCCCCCCCOS(=O)(=O)O` [Tetramethylammoniumdodecylsulfat], the “Löslichkeitstemperatur in Wasser” value in series [1] is < 0 °C.

A word on the IC50: it is the concentration that gives 50% inhibition. Lower therefore signals higher potency.
